Results on four compounds are retold here after paper PMC10316653 (iScience, 2023).

The test system of assay [1] is PKCθ. To be noted: reported selectivity profile, ref not given; cited from earlier work.
For assay [2], the target named is T1, A2BAR (Homo sapiens, UniProt P29275).
T1 sequence (P29275 1-332): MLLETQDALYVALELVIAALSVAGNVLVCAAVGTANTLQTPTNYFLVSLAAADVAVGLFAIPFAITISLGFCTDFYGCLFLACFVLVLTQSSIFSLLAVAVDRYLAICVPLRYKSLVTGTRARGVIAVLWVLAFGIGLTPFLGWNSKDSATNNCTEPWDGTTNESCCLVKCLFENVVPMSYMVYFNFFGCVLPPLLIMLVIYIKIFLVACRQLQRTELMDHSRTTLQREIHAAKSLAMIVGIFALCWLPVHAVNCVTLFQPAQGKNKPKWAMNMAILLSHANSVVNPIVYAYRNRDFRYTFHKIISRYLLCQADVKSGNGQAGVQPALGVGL
The experiment in a line: cAMP accumulation assay in naive HEK293 cells. In kind it is cell-based. To be noted: naive HEK293 cells, PMA 1 μM, BAY 10 μM.

Assay [3] relates to PKCδ. As to conditions: reported selectivity profile, ref not given; cited from earlier work.
The test system of assay [4] is PKCα. As to conditions: reported selectivity profile, ref not given; cited from earlier work.
Assay [5] relates to PKCβI. As to conditions: reported selectivity profile, ref not given; cited from earlier work.
In assay [6] the target is T1, A2BAR. The experiment in a line: cAMP accumulation assay in HEK293-A2B cells. In kind it is cell-based. As to conditions: HEK293-A2B cells.
Assay [7] concerns PKCγ. To be noted: reported selectivity profile, ref not given; cited from earlier work.
The test system of assay [8] is PKCβ2. As to conditions: reported selectivity profile, ref not given; cited from earlier work.
Assay [9] relates to PKCβ. As to conditions: reported selectivity profile, ref not given; cited from earlier work.

For `CC(C)[C@@](C)(O)[C@@H]1CN(c2nc(-c3[nH]nc4ncccc34)c(F)cc2Cl)CCN1` [VTX-27], the results for the IC50 in [1] and in assay [3] were 0.08 nM and 16 nM, respectively. Further, in assay [2] (inhibitor 1 μM), the “effect on PKC (PMA)-induced enhancement of BAY-induced cAMP accumulation” value (from here on “effect on PKC (PMA)-induced enhancement”) is reported as “did not significantly inhibit”.
In the case of `Cn1c2ccccc2c2c3c(c4c5ccccc5n(CCC#N)c4c21)CNC3=O` [GO6976], the figures for the half-inhibitory concentration (IC50) in [4] and in [5] were 2.3 nM and 6.2 nM, respectively. The “effect on PKC-induced A2BAR activation (cAMP)” value in [6] (inhibitor 30 nM) is on record as “lack of inhibition”. Also, the “effect on PKC (PMA)-induced enhancement” value in assay [2] (inhibitor 1 μM) was “modest but significant inhibition”.
For `CN(C)C[C@@H]1CCn2cc(c3ccccc32)C2=C(C(=O)NC2=O)c2cn(c3ccccc23)CCO1` [LY333531], the IC50 in assay [7] was […]; in [5] it was […]; in assay [8], […]. The entries for the “effect on PKC-induced A2BAR activation (cAMP)” value in assay [6] (inhibitor 30 nM) and in [6] (inhibitor 1 μM) were “lack of inhibition” and “significant inhibition”, respectively. In assay [2] (inhibitor 30 nM), the “effect on PKC (PMA)-induced enhancement” value was “did not inhibit PMA-induced enhancement”.
On to `Cn1cc(C2=C(c3cn(C4CCN(Cc5ccccn5)CC4)c4ccccc34)C(=O)NC2=O)c2ccccc21` [enzastaurin], for which the IC50 in assay [7] is […]; in assay [9] it was […]. In addition, the “effect on PKC (PMA)-induced enhancement” value in assay [2] (inhibitor 30 nM) is reported as “did not inhibit PMA-induced enhancement”.
